Experiment [1] deals with Mitogen-activated protein kinase kinase kinase kinase 5 (Homo sapiens, UniProt Q9Y4K4). The experiment in a line: Inhibition of MAP4K5.
Experiment [2] deals with Tyrosine-protein kinase ABL2 (Homo sapiens, UniProt P42684). The experiment in a line: Inhibition of ABL2.
The target in experiment [3] is Tyrosine-protein kinase Fgr (Homo sapiens, UniProt P09769). The experiment in a line: Inhibition of FGR.
The target of experiment [4] is Tyrosine-protein kinase FRK (Homo sapiens, UniProt P42685). The experiment in a line: Inhibition of FRK.
Experiment [5] deals with Tyrosine-protein kinase BTK (Homo sapiens, UniProt Q06187). The experiment in a line: Inhibition of BTK.
In a further experiment the target is Activated CDC42 kinase 1 (Homo sapiens, UniProt Q07912). The experiment in a line: Inhibition of TNK2.
The target of experiment [6] is Tyrosine-protein kinase HCK (Homo sapiens, UniProt P08631). The experiment in a line: Inhibition of HCK.
Experiment [7] addresses Serine/threonine-protein kinase 24 (Homo sapiens, UniProt Q9Y6E0). The experiment in a line: Inhibition of STK24.
Experiment [8] addresses Mitogen-activated protein kinase kinase kinase kinase 2 (Homo sapiens, UniProt Q12851). The experiment in a line: Inhibition of MAP4K2.
Another experiment deals with Misshapen-like kinase 1 (Homo sapiens, UniProt Q8N4C8). The experiment in a line: Inhibition of MINK1.
In experiment [9] the target is Tyrosine-protein kinase CSK (Homo sapiens, UniProt P41240). The experiment in a line: Inhibition of CSK.
Experiment [10] deals with Protein-tyrosine kinase 2-beta (Homo sapiens, UniProt Q14289). The experiment in a line: Inhibition of PTK2B.
The target of experiment [11] is Calcium/calmodulin-dependent protein kinase type II subunit gamma (Homo sapiens, UniProt Q13555). The experiment in a line: Inhibition of CAMK2G.
Experiment [12] addresses Tyrosine-protein kinase Tec (Homo sapiens, UniProt P42680). The experiment in a line: Inhibition of TEC.
For experiment [13], the target named is Serine/threonine-protein kinase TBK1 (Homo sapiens, UniProt Q9UHD2). The experiment in a line: Inhibition of TBK1.
The target of experiment [14] is Tyrosine-protein kinase Blk (Mus musculus, UniProt P16277). The experiment in a line: Inhibition of mouse BLK.
Experiment [15] has as its target Interleukin-1 receptor-associated kinase 4 (Homo sapiens, UniProt Q9NWZ3). The experiment in a line: Inhibition of IRAK4.
Experiment [16] deals with T1, Angiopoietin-1 receptor (Homo sapiens, UniProt Q02763). The experiment in a line: Inhibition of TIE2.
For experiment [17], the target named is T2, High affinity nerve growth factor receptor (Homo sapiens, UniProt P04629). The experiment in a line: Inhibition of TRKA.
Experiment [18] addresses T3, BDNF/NT-3 growth factors receptor (Homo sapiens, UniProt Q16620). The experiment in a line: Inhibition of TRKB.
For experiment [19], the target named is Tyrosine-protein kinase TXK (Homo sapiens, UniProt P42681). The experiment in a line: Inhibition of TXK.
Experiment [20] addresses Tyrosine-protein kinase receptor UFO (Homo sapiens) (UniProt P30530). The experiment in a line: Inhibition of AXL at 10 uM.
Experiment [21] concerns the target Tyrosine-protein kinase Fes/Fps (Homo sapiens) (UniProt P07332). The experiment in a line: Inhibition of FES at 10 uM.
Experiment [22] deals with T2, High affinity nerve growth factor receptor. The experiment in a line: Inhibition of TRKA at 10 uM.
For experiment [23], the target named is T3, BDNF/NT-3 growth factors receptor. The experiment in a line: Inhibition of TRKB at 10 uM.
Experiment [24] has as its target T1, Angiopoietin-1 receptor. The experiment in a line: Inhibition of TIE2 at 10 uM.
The target of experiment [25] is Interleukin-1 receptor-associated kinase 4 (Homo sapiens) (UniProt Q9NWZ3). The experiment in a line: Inhibition of IRAK4 at 10 uM.

`COc1cc(Nc2c(C#N)cnc3cc(OCCCN4CCN(C)CC4)c(OC)cc23)c(Cl)cc1Cl` [BOSUTINIB]: the 50% inhibitory concentration (IC50) (as a rule, the point on the concentration scale where inhibition reaches its midpoint) in experiment [1] came out at 0.3 nM; in [2] it was 0.5 nM; in experiment [3], 1.1 nM; in experiment [4] it was 2.2 nM; in [5], 2.5 nM; on Activated CDC42 kinase 1, 2.7 nM. Also, the IC50 came to 3.2 nM in experiment [6]; 3.9 nM in experiment [7]; 9.9 nM in [8]; 22 nM at Misshapen-like kinase 1; 63 nM in experiment [9]; 134 nM in [10]. Besides, the IC50 in [11] came to 184 nM; in experiment [12], 282 nM; in experiment [13] it was 471 nM; in [14] it was 7.3 nM; in experiment [15], 574 nM; at Angiopoietin-1 receptor [16], 1190 nM. Moreover, the values for the IC50 in experiment [17], in experiment [18] and in experiment [19] were 22 nM, 27 nM and 40 nM, respectively.
In the case of `Cc1nc(Nc2ncc(C(=O)Nc3c(C)cccc3Cl)s2)cc(N2CCN(CCO)CC2)n1` [DASATINIB], the midpoint of inhibition in experiment [14], the IC50, lay at 8 nM. For the same compound, the residual activity (usually the signal under treatment as a percentage of the control signal) in experiment [20] is 86%; in experiment [21], 83%; in experiment [22], 35%; in experiment [23], 52%; at Angiopoietin-1 receptor [24] it was 48%; in experiment [25], 84%.

For the origin of these results see ChEMBL document CHEMBL1240341 (Leukemia, 2009).
